Laboratory results published in ChEMBL document CHEMBL1201861, “Genomics of Drug Sensitity in Cancer screening data, Wellcome Trust Sanger Institute”.
pIC50: −log10 of the molar value.

Legend:
Test in all cases: cells
[1] = test system: MZ1-PC; format: functional, cell-based, Homo sapiens; settings: Homo sapiens, MZ1-PC;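 also: cell viability assay measuring growth inhibition of human MZ1-PC cells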
Description: SANGER: Inhibition of human MZ1-PC cell growth in a cell viability assay.

[2] = test system: MZ7-mel; format: functional, cell-based, Homo sapiens; settings: Homo sapiens, MZ7-mel;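 also: growth inhibition of human MZ7-mel cells, measured by a cell viability assay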
Description: SANGER: Inhibition of human MZ7-mel cell growth in a cell viability assay.

[3] = test system: A498; format: functional, cell-based, Homo sapiens; settings: Homo sapiens, A498;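 also: growth inhibition of human A498 cells, read out with a cell viability assay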
Description: SANGER: Inhibition of human A498 cell growth in a cell viability assay.

[4] = test system: UACC-257; format: functional, cell-based, Homo sapiens; settings: Homo sapiens, UACC-257
Description: SANGER: Inhibition of human UACC-257 cell growth in a cell viability assay.

[5] = test system: HT-144; format: functional, cell-based, Homo sapiens; settings: Homo sapiens, HT-144
Description: SANGER: Inhibition of human HT-144 cell growth in a cell viability assay.

[6] = test system: SK-PN-DW; format: functional, cell-based, Homo sapiens; settings: Homo sapiens, SK-PN-DW;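 also: growth inhibition measured with a viability assay on these cells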
Description: SANGER: Inhibition of human SK-PN-DW cell growth in a cell viability assay.

[7] = test system: HEL; format: functional, cell-based, Homo sapiens; settings: Homo sapiens, HEL;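 also: growth inhibition of HEL cells, read out with a cell viability assay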
Description: SANGER: Inhibition of human HEL cell growth in a cell viability assay.

[8] = test system: Ramos-2G6-4C10; format: functional, cell-based, Homo sapiens; settings: Homo sapiens, Ramos-2G6-4C10;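 also: growth inhibition of the cell line, measured by a cell viability read-out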
Description: SANGER: Inhibition of human Ramos-2G6-4C10 cell growth in a cell viability assay.

[9] = test system: AM-38; format: functional, cell-based, Homo sapiens; settings: Homo sapiens, AM-38;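 also: growth inhibition of AM-38 cells of human origin, read out by a cell viability assay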
Description: SANGER: Inhibition of human AM-38 cell growth in a cell viability assay.

[10] = test system: NH-12; format: functional, cell-based, Homo sapiens; settings: Homo sapiens, NH-12;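 also: growth inhibition of NH-12 cells, read out with a cell viability assay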
Description: SANGER: Inhibition of human NH-12 cell growth in a cell viability assay.

[11] = test system: DB; format: functional, cell-based, Homo sapiens; settings: Homo sapiens, DB
Description: SANGER: Inhibition of human DB cell growth in a cell viability assay.

[12] = test system: SK-LMS-1; format: functional, cell-based, Homo sapiens; settings: Homo sapiens, SK-LMS-1;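 also: growth inhibition of human SK-LMS-1 cells, read out with a cell viability assay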
Description: SANGER: Inhibition of human SK-LMS-1 cell growth in a cell viability assay.

[13] = test system: BT-474; format: functional, cell-based, Homo sapiens; settings: Homo sapiens, BT-474
Description: SANGER: Inhibition of human BT-474 cell growth in a cell viability assay.

[14] = test system: HT; format: functional, cell-based, Homo sapiens; settings: Homo sapiens, HT
Description: SANGER: Inhibition of human HT cell growth in a cell viability assay.

[15] = test system: SJSA-1; format: functional, cell-based, Homo sapiens; settings: Homo sapiens, SJSA-1;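 also: growth inhibition of human SJSA-1 cells, read out through a cell viability measurement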
Description: SANGER: Inhibition of human SJSA-1 cell growth in a cell viability assay.

[16] = test system: HCC2218; format: functional, cell-based, Homo sapiens; settings: Homo sapiens, HCC2218;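 also: cell viability assay read-out, with IC50 given as the concentration that inhibits growth of the cell line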
Description: SANGER: Inhibition of human HCC2218 cell growth in a cell viability assay.

[17] = test system: SCH; format: functional, cell-based, Homo sapiens; settings: Homo sapiens, SCH;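 also: growth inhibition of human SCH cells, read out in a cell viability assay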
Description: SANGER: Inhibition of human SCH cell growth in a cell viability assay.

[18] = test system: TE-6; format: functional, cell-based, Homo sapiens; settings: Homo sapiens, TE-6;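 also: growth inhibition of TE-6 cells, read out with a cell viability assay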
Description: SANGER: Inhibition of human TE-6 cell growth in a cell viability assay.

[19] = test system: NCI-H2126; format: functional, cell-based, Homo sapiens; settings: Homo sapiens, NCI-H2126;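 also: growth inhibition of the cancer cell line, determined with a cell viability readout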
Description: SANGER: Inhibition of human NCI-H2126 cell growth in a cell viability assay.

[20] = test system: RXF 393; format: functional, cell-based, Homo sapiens; settings: Homo sapiens, RXF 393;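 also: growth inhibition of human RXF 393 cells, read out with a cell viability assay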
Description: SANGER: Inhibition of human RXF393 cell growth in a cell viability assay.

[21] = test system: SW684; format: functional, cell-based, Homo sapiens; settings: Homo sapiens, SW684;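 also: growth inhibition of human SW684 cells, measured by a cell viability assay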
Description: SANGER: Inhibition of human SW684 cell growth in a cell viability assay.

[22] = test system: C8166; format: functional, cell-based, Homo sapiens; settings: Homo sapiens, C8166;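 also: growth inhibition of human C8166 cells measured by a cell viability assay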
Description: SANGER: Inhibition of human C8166 cell growth in a cell viability assay.

[23] = test system: NCI-H226; format: functional, cell-based, Homo sapiens; settings: Homo sapiens, NCI-H226;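 also: cell viability read-out used to gauge growth inhibition of the cells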
Description: SANGER: Inhibition of human NCI-H226 cell growth in a cell viability assay.

[24] = test system: D-247MG; format: functional, cell-based, Homo sapiens; settings: Homo sapiens, D-247MG
Description: SANGER: Inhibition of human D-247MG cell growth in a cell viability assay.

[25] = test system: QIMR-WIL; format: functional, cell-based, Homo sapiens; settings: Homo sapiens, QIMR-WIL;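 also: growth inhibition of QIMR-WIL cells, read out with a cell viability assay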
Description: SANGER: Inhibition of human QIMR-WIL cell growth in a cell viability assay.

[26] = test system: DMS-79; format: functional, cell-based, Homo sapiens; settings: Homo sapiens, DMS-79;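 also: growth inhibition measured with a cell viability assay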
Description: SANGER: Inhibition of human DMS-79 cell growth in a cell viability assay.

[27] = test system: NCI-H69; format: functional, cell-based, Homo sapiens; settings: Homo sapiens, NCI-H69;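 also: growth inhibition of the cell line, read out with a cell viability assay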
Description: SANGER: Inhibition of human NCI-H69 cell growth in a cell viability assay.

[28] = test system: NB5; format: functional, cell-based, Homo sapiens; settings: Homo sapiens, NB5;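 also: growth inhibition of NB5 cells, read out as cell viability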
Description: SANGER: Inhibition of human NB5 cell growth in a cell viability assay.

[29] = test system: DU-4475; format: functional, cell-based, Homo sapiens; settings: Homo sapiens, DU-4475
Description: SANGER: Inhibition of human DU-4475 cell growth in a cell viability assay.

[30] = test system: SNU-5; format: functional, cell-based, Homo sapiens; settings: Homo sapiens, SNU-5;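 also: cell viability readout used to measure growth inhibition in human NCI-SNU-5 cells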
Description: SANGER: Inhibition of human NCI-SNU-5 cell growth in a cell viability assay.

[31] = test system: U-87 MG; format: functional, cell-based, Homo sapiens, U-87MG ATCC; settings: Homo sapiens, U-87 MG;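 also: growth inhibition of the cells measured with a viability assay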
Description: SANGER: Inhibition of human U-87-MG cell growth in a cell viability assay.

[32] = test system: NCI-H1092; format: functional, cell-based, Homo sapiens; settings: Homo sapiens, NCI-H1092;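 also: cell growth inhibition measured with a cell viability assay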
Description: SANGER: Inhibition of human NCI-H1092 cell growth in a cell viability assay.

[33] = test system: Calu-6; format: functional, cell-based, Homo sapiens; settings: Homo sapiens, Calu-6;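 also: growth of human Calu-6 cells, read out by a cell viability assay, IC50 marking inhibition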
Description: SANGER: Inhibition of human Calu-6 cell growth in a cell viability assay.

[34] = test system: RS4-11; format: functional, cell-based, Homo sapiens; settings: Homo sapiens, RS4-11;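 also: growth inhibition of RS4-11 cells, read out by a cell viability assay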
Description: SANGER: Inhibition of human RS4-11 cell growth in a cell viability assay.

[35] = test system: D-263MG; format: functional, cell-based, Homo sapiens; settings: Homo sapiens, D-263MG
Description: SANGER: Inhibition of human D-263MG cell growth in a cell viability assay.

[36] = test system: KM12; format: functional, cell-based, Homo sapiens; settings: Homo sapiens, KM12;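 also: KM12 cell growth inhibition, read out with a cell viability assay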
Description: SANGER: Inhibition of human KM12 cell growth in a cell viability assay.

[37] = test system: JAR; format: functional, cell-based, Homo sapiens; settings: Homo sapiens, JAR;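 also: growth inhibition of human JAR cells determined with a cell viability assay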
Description: SANGER: Inhibition of human JAR cell growth in a cell viability assay.

[38] = test system: EW-1; format: functional, cell-based, Homo sapiens; settings: Homo sapiens, EW-1;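 also: growth inhibition of the human EW-1 cell line, read out by a cell viability assay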
Description: SANGER: Inhibition of human EW-1 cell growth in a cell viability assay.

[39] = test system: SK-MEL-2; format: functional, cell-based, Homo sapiens; settings: Homo sapiens, SK-MEL-2;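 also: growth inhibition of human SK-MEL-2 cells measured with a cell viability assay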
Description: SANGER: Inhibition of human SK-MEL-2 cell growth in a cell viability assay.

[40] = test system: LC-2-ad; format: functional, cell-based, Homo sapiens; settings: Homo sapiens, LC-2-ad;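 also: growth inhibition of human LC-2-ad cells, read out with a cell viability assay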
Description: SANGER: Inhibition of human LC-2-ad cell growth in a cell viability assay.

[41] = test system: Becker; format: functional, cell-based, Homo sapiens; settings: Homo sapiens, Becker;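 also: growth inhibition of Becker cells, read out with a cell viability assay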
Description: SANGER: Inhibition of human Becker cell growth in a cell viability assay.

[42] = test system: ACN; format: functional, cell-based, Homo sapiens; settings: Homo sapiens, ACN;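 also: growth inhibition of the human ACN cell line, read out via cell viability testing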
Description: SANGER: Inhibition of human ACN cell growth in a cell viability assay.

[43] = test system: HuTu80; format: functional, cell-based, Homo sapiens, HUTU-80; settings: Homo sapiens, HuTu80;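 also: growth inhibition of HuTu80 human cells, determined with a cell viability readout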
Description: SANGER: Inhibition of human HUTU-80 cell growth in a cell viability assay.

[44] = test system: NB10; format: functional, cell-based, Homo sapiens; settings: Homo sapiens, NB10;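 also: growth inhibition of NB10 cells, read out by a cell viability assay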
Description: SANGER: Inhibition of human NB10 cell growth in a cell viability assay.

[45] = test system: TE-9; format: functional, cell-based, Homo sapiens; settings: Homo sapiens, TE-9;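 also: cell growth inhibition, measured with a cell viability readout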
Description: SANGER: Inhibition of human TE-9 cell growth in a cell viability assay.

[46] = test system: NCI-H446; format: functional, cell-based, Homo sapiens; settings: Homo sapiens, NCI-H446;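 also: growth inhibition of NCI-H446 cells determined by a cell viability assay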
Description: SANGER: Inhibition of human NCI-H446 cell growth in a cell viability assay.

[47] = test system: LNCaP-Clone-FGC; format: functional, cell-based, Homo sapiens; settings: Homo sapiens, LNCaP-Clone-FGC
Description: SANGER: Inhibition of human LNCaP-Clone-FGC cell growth in a cell viability assay.

[48] = test system: TE-10; format: functional, cell-based, Homo sapiens; settings: Homo sapiens, TE-10;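 also: growth inhibition of TE-10 cells, measured by a cell viability assay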
Description: SANGER: Inhibition of human TE-10 cell growth in a cell viability assay.

With CO[C@H]1C[C@@H]2CC[C@@H](C)[C@@](O)(O2)C(=O)C(=O)N2CCCC[C@H]2C(=O)O[C@H]([C@H](C)C[C@@H]2CC[C@@H](OC(=O)C(C)(CO)CO)[C@H](OC)C2)CC(=O)[C@H](C)/C=C(\C)[C@@H](O)[C@@H](OC)C(=O)[C@H](C)C[C@H](C)/C=C/C=C/C=C/1C [TEMSIROLIMUS] as the compound, how does the pIC50 [1] read?
Its pIC50 is < 6.70.

What about the pIC50 [2] of the same compound?
The pIC50 was 6.79.

What about the pIC50 [3] of the same compound?
The pIC50 was < 6.70.

And the pIC50 [4]?
Its pIC50 is < 6.70.

And the pIC50 [5]?
The pIC50 was < 6.70.

And the pIC50 [6]?
The pIC50 was < 6.70.

What about the pIC50 [7] of the same compound?
Its pIC50 is 6.80.

What about the pIC50 [8] of the same compound?
Its pIC50 is 9.47.

And the pIC50 [9]?
Its pIC50 is < 6.70.

And the pIC50 [10]?
The pIC50 was < 6.70.

What about the pIC50 [11] of the same compound?
The pIC50 was 8.51.

And the pIC50 [12]?
The pIC50 was < 6.70.

And the pIC50 [13]?
The pIC50 was < 6.70.

And the pIC50 [14]?
The pIC50 was 7.56.

What about the pIC50 [15] of the same compound?
The pIC50 was 6.84.

And the pIC50 [16]?
The pIC50 was < 6.70.

What about the pIC50 [17] of the same compound?
Its pIC50 is < 6.70.

And the pIC50 [18]?
Its pIC50 is 6.72.

And the pIC50 [19]?
Its pIC50 is 7.24.

And the pIC50 [20]?
The pIC50 was 7.81.

What about the pIC50 [21] of the same compound?
Its pIC50 is < 6.70.

And the pIC50 [22]?
Its pIC50 is < 6.70.

What about the pIC50 [23] of the same compound?
The pIC50 was < 6.70.

And the pIC50 [24]?
Its pIC50 is < 6.70.

And the pIC50 [25]?
The pIC50 was 8.24.

And the pIC50 [26]?
The pIC50 was < 6.70.

And the pIC50 [27]?
Its pIC50 is < 6.70.

What about the pIC50 [28] of the same compound?
Its pIC50 is 6.95.

What about the pIC50 [29] of the same compound?
The pIC50 was 7.93.

And the pIC50 [30]?
The pIC50 was < 6.70.

And the pIC50 [31]?
The pIC50 was < 6.70.

What about the pIC50 [32] of the same compound?
The pIC50 was < 6.70.

And the pIC50 [33]?
Its pIC50 is < 6.70.

And the pIC50 [34]?
Its pIC50 is 8.07.

What about the pIC50 [35] of the same compound?
Its pIC50 is 6.80.

What about the pIC50 [36] of the same compound?
The pIC50 was < 6.70.

And the pIC50 [37]?
Its pIC50 is < 6.70.

What about the pIC50 [38] of the same compound?
Its pIC50 is < 6.70.

And the pIC50 [39]?
The pIC50 was < 6.70.

And the pIC50 [40]?
The pIC50 was < 6.70.

What about the pIC50 [41] of the same compound?
Its pIC50 is 7.10.

What about the pIC50 [42] of the same compound?
Its pIC50 is 7.89.

And the pIC50 [43]?
The pIC50 was < 6.70.

What about the pIC50 [44] of the same compound?
Its pIC50 is < 6.70.

And the pIC50 [45]?
The pIC50 was < 6.70.

And the pIC50 [46]?
The pIC50 was < 6.70.

What about the pIC50 [47] of the same compound?
The pIC50 was 6.74.

What about the pIC50 [48] of the same compound?
The pIC50 was < 6.70.

How did the pIC50 [1] turn out when Cc1cn(-c2cc(NC(=O)c3ccc(C)c(Nc4nccc(-c5cccnc5)n4)c3)cc(C(F)(F)F)c2)cn1 [NILOTINIB] was run?
Its pIC50 is < 5.70.

What about the pIC50 [2] of the same compound?
The pIC50 was < 5.70.

What about the pIC50 [3] of the same compound?
Its pIC50 is < 5.70.

And the pIC50 [4]?
Its pIC50 is < 5.70.

And the pIC50 [5]?
The pIC50 was < 5.70.

And the pIC50 [6]?
Its pIC50 is < 5.70.

What about the pIC50 [7] of the same compound?
Its pIC50 is < 5.70.

And the pIC50 [8]?
Its pIC50 is < 5.70.

What about the pIC50 [9] of the same compound?
The pIC50 was < 5.70.

And the pIC50 [10]?
Its pIC50 is < 5.70.

And the pIC50 [11]?
Its pIC50 is < 5.70.

What about the pIC50 [12] of the same compound?
The pIC50 was < 5.70.

What about the pIC50 [13] of the same compound?
The pIC50 was < 5.70.

What about the pIC50 [14] of the same compound?
Its pIC50 is < 5.70.

And the pIC50 [15]?
Its pIC50 is < 5.70.

What about the pIC50 [16] of the same compound?
The pIC50 was < 5.70.

What about the pIC50 [17] of the same compound?
The pIC50 was < 5.70.

What about the pIC50 [18] of the same compound?
The pIC50 was < 5.70.

What about the pIC50 [19] of the same compound?
The pIC50 was < 5.70.

And the pIC50 [20]?
The pIC50 was < 5.70.

What about the pIC50 [21] of the same compound?
The pIC50 was < 5.70.

What about the pIC50 [22] of the same compound?
Its pIC50 is < 5.70.

And the pIC50 [23]?
The pIC50 was < 5.70.

What about the pIC50 [24] of the same compound?
The pIC50 was < 5.70.

What about the pIC50 [25] of the same compound?
The pIC50 was < 5.70.

What about the pIC50 [26] of the same compound?
Its pIC50 is < 5.70.

What about the pIC50 [27] of the same compound?
Its pIC50 is < 5.70.

What about the pIC50 [28] of the same compound?
Its pIC50 is < 5.70.

What about the pIC50 [29] of the same compound?
Its pIC50 is < 5.70.

What about the pIC50 [30] of the same compound?
Its pIC50 is < 5.70.

And the pIC50 [31]?
The pIC50 was < 5.70.

What about the pIC50 [32] of the same compound?
The pIC50 was < 5.70.

What about the pIC50 [33] of the same compound?
The pIC50 was < 5.70.

What about the pIC50 [34] of the same compound?
The pIC50 was < 5.70.

And the pIC50 [35]?
Its pIC50 is < 5.70.

What about the pIC50 [36] of the same compound?
The pIC50 was < 5.70.

And the pIC50 [37]?
Its pIC50 is < 5.70.

What about the pIC50 [38] of the same compound?
The pIC50 was < 5.70.

And the pIC50 [39]?
Its pIC50 is < 5.70.

What about the pIC50 [40] of the same compound?
The pIC50 was < 5.70.

What about the pIC50 [41] of the same compound?
Its pIC50 is < 5.70.

And the pIC50 [42]?
Its pIC50 is 5.81.

What about the pIC50 [43] of the same compound?
The pIC50 was < 5.70.

What about the pIC50 [44] of the same compound?
The pIC50 was < 5.70.

And the pIC50 [45]?
Its pIC50 is < 5.70.

And the pIC50 [46]?
Its pIC50 is < 5.70.

What about the pIC50 [47] of the same compound?
Its pIC50 is < 5.70.

And the pIC50 [48]?
The pIC50 was < 5.70.
